Where a name gives a salt, the structure may show the parent alone.
Biological target: T1, thromboxane synthetase from rabbit platelet microsomes (Oryctolagus cuniculus, UniProt G1TAZ9)
T1 construct: thromboxane synthetase from rabbit platelet microsomes; from tissue; host or cells: rabbit platelet microsomes
T1 sequence (G1TAZ9 1-530): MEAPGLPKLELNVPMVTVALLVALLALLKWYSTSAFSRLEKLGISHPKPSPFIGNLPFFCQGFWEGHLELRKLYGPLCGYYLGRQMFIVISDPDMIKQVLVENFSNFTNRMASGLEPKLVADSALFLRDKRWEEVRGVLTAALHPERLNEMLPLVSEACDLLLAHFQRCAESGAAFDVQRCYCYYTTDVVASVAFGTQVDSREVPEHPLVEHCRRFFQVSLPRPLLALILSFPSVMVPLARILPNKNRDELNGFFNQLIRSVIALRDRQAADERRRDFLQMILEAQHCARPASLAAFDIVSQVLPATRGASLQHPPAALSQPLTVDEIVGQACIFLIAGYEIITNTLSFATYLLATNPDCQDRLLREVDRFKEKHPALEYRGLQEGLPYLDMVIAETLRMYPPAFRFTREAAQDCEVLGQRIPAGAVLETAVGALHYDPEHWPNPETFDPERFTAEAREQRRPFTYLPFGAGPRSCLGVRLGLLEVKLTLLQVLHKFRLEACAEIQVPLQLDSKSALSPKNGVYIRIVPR
Assay: inhibition of thromboxane synthetase from rabbit platelet microsomes (standard laboratory tests)
Type: biochemical

IC50 [µM]	SMILES
0.046	O=C(O)C1(CCCCCCn2ccnc2)CCCCC1 [1-(7-carboxy-7,7-pentanoheptyl)imidazole hydrochloride]
0.038	O=C(O)C(CCCCCCn1ccnc1)c1ccccc1 (centres unmarked) [1-(7-carboxy-7-phenylheptyl)imidazole hydrochloride]
